Patent US20090099240A1, “METHODS FOR TREATING ENERGY METABOLISM DISORDERS BY INHIBITING FATTY ACID AMIDE HYDROLASE ACTIVITY” (N.V. Organon, priority 2006, published 2009)

Columns and labels:
cynomolgus monkeys = test: Time course of plasma OEA levels after oral dosing in cynomolgus monkeys; type: in vivo, cynomolgus monkey; conditions: oral 50-1500 mg/kg
Protocol: Afterwards, a time course of plasma OEA levels was determined for each subject by obtaining a plasma sample at 0.5, 1, 2, 4, 8, 12, and 24 hours post-administration.

[1] = system: APOE*3-Leiden transgenic (E3L) mice; test: Total plasma triglyceride levels in E3L mice; type: in vivo, mouse
Description: (§1) We assessed the effect of inhibiting FAAH activity on body weight, body fat, triglyceride levels, cholesterol levels in APOE*3-Leiden transgenic (E3L) mice, an animal model of hyperlipidemia. […] See van Vlijmen et al. (1994), J. Clin Invest., 93:1403-1410. Indeed, upon high fat and cholesterol feeding, these mice develop various stages of atherosclerotic lesions depending on plasma total cholesterol levels and resembling those found in humans. See Groot et al. (1996), Arterioscler. Thromb. Vasc. Biol., 16:926-933; Versch ren et al. (2005), Arterioscler. Thromb. Vasc Biol., 25:161-167; and Lutgens et al. (1999), Circulation; 99(2):276-283). Thus, the E3L mouse is a suitable model for the investigation of the efficacy of anti-atherosclerotic drugs.
(§2) E3L mice were fed a high cholesterol (1% w/w) diet (HC diet) for a period of four weeks. Animals were then matched based on their plasma cholesterol levels, and were divided into five groups, each of which was maintained on an HC diet.
(§3) Blood samples were collected at days 0, 14, and 28 of the treatment period. At the end of the treatment period, animals were sacrificed, and various tissues and organs were analyzed. Unless otherwise indicated, values are mean±standard deviation (SD).

[2] = system: APOE*3-Leiden transgenic (E3L) mice; test: Food intake per animal per day in E3L mice; type: in vivo, mouse
Description: as §1, §2

[3] = system: APOE*3-Leiden transgenic (E3L) mice; test: Plasma leptin ELISA in E3L mice; type: in vivo, mouse
Description: as §2
Accordingly, we quantified plasma leptin levels after a four hour fasting period at treatment time points 0, 14, and 28 days using a mouse-specific leptin ELISA or (kit number MOB00 from R&D Systems, Minneapolis, Minn.) according to the guidelines and protocol specified by the manufacturer.

[4] = system: APOE*3-Leiden transgenic (E3L) mice; test: Plasma lipoprotein profiles (size fractionation of pooled plasma) in E3L mice; type: in vivo, mouse; conditions: day 28, FIG. 1
Protocol: as §2
Lipoprotein profiles were determined in pooled plasma from day 28, as described in Verschuren et al. (2005), Arterioscler. Thromb. Vasc Biol., 25:161-167. An equal amount of plasma per animal was used to prepare a plasma pool for each group. Plasma lipoproteins in each plasma pool were separated by size fractionation. Typically, VLDL, IDL/LDL and HDL lipoproteins are eluted in fractions 4-8, fractions 11-16 and fractions 17-20, respectively.

[5] = system: APOE*3-Leiden transgenic (E3L) mice; test: Plasma adiponectin ELISA in E3L mice; type: in vivo, mouse
Description: as §2
We determined plasma adiponectin levels after a four hour fasting period at 0, 14, 28 days, using a mouse-specific adiponectin/Acrp30 ELISA (kit number MRP300 from R&D Systems, Minneapolis, Minn.).

[6] = system: APOE*3-Leiden transgenic (E3L) mice; test: Plasma alanine aminotransferase (ALAT) activity in E3L mice; type: in vivo, mouse
Protocol: as §2
Levels of plasma alanine aminotransferase (ALAT) were determined on day 28 (table 7). Plasma ALAT is a measure of hepatic stress and increases in plasma ALAT levels are often associated with liver damage. […] Thus, a reduction in plasma ALAT levels is associated with improved liver function.

[7] = system: APOE*3-Leiden transgenic (E3L) mice; test: Lipid content of liver (TLC) in E3L mice; type: in vivo, mouse
Description: as §2
A reduction of Red Oil O staining in liver generally indicates reduced liver lipid content. We therefore quantified levels of lipids in livers from each animal, as described in Havekes et al. (1987), Biochem. J., 247:739-746; Delsing et al. (2005), J. Cardiovasc. Pharmacol., 45:53-60; and Post et al. (2004), ATVB, 24:768-774. Liver tissue homogenates were prepared. Lipids were extracted, dried under nitrogen, dissolved in chloroform, and spotted onto a channeled 20×20 cm silica gel thin layer chromatography (TLC) plate. Lipids were then separated, TLC plates were warmed up to visualize bands, and bands were quantified using an internal standard as reference.

[8] = system: APOE*3-Leiden transgenic (E3L) mice; test: Total plasma cholesterol in E3L mice; type: in vivo, mouse
Description: as §1, §2, §3

[9] = system: APOE*3-Leiden transgenic (E3L) mice; test: Plasma ketone body (D-3-hydroxybutyrate) levels in E3L mice; type: in vivo, mouse
Description: as §2
We quantified plasma D-3-hydroxybutyrate (b-HBA; ketone bodies) levels were quantified in plasma samples obtained after a 4-hour fasting period at time points t=0, t=2, and t=4 weeks using kits #2940 (b-HBA reagent set) and #2947 (b-HBA control set)) according to the guidelines and protocol specified by the manufacturer (Instruchemie, Delfzijl, The Netherlands).

[10] = system: APOE*3-Leiden transgenic (E3L) mice; test: Body weight in E3L mice on high cholesterol diet; type: in vivo, mouse
Description: as §1, §2

[11] = system: APOE*3-Leiden transgenic (E3L) mice; test: Organ and tissue weights in E3L mice on high cholesterol diet
Description: as §1, §2, §3

[12] = system: APOE*3-Leiden transgenic (E3L) mice; test: Oil Red O staining of liver sections (steatosis) in E3L mice; type: in vivo, mouse; conditions: compared to the control vehicle group
Description: as §2
In order to examine cellular stress in the liver due to lipid storage (steatosis), we stained frozen liver tissue sections with Oil Red O a fat-soluble diazo dye used to stain for lipids. Digital photomicrographs of liver cross sections were taken for each individual animal (magnification: 20 fold). […]

[13] = E3L mice, HC diet, end of four-week treatment, mean ± SD

SMILES: NC(=O)c1cccc(-c2cccc(OC(=O)NC3CCCCC3)c2)c1 [KDS-4103]
- time of peak plasma OEA levels (cynomolgus monkeys; FIG. 2): four
- plasma OEA levels, in words (cynomolgus monkeys; all time points after the peak (up to 24 hours)): remained elevated
- plasma OEA levels, in words (cynomolgus monkeys; two hours after administration, FIG. 2): clearly elevated
- Total Plasma Triglyceride Levels ([1]; day 0): 1.5 ± 0.4 mM
- Total Plasma Triglyceride Levels ([1]; day 14): 1.9 ± 0.6 mM
- Total Plasma Triglyceride Levels ([1]; day 28): 1.9 ± 0.5 mM
- total plasma triglyceride levels, in words ([1]; relative to respective control group): not significantly changed
- Food Intake Per Animal Per Day ([2]; interval 0-0.5 weeks): 2.3 ± 0.1 g
- Food Intake Per Animal Per Day ([2]; interval 0.5-1.0 weeks): 2.4 ± 0.1 g
- Food Intake Per Animal Per Day ([2]; interval 1.0-1.5 weeks): 2.3 ± 0.2 g
- Food Intake Per Animal Per Day ([2]; interval 1.5-2.0 weeks): 2.6 ± 0.1 g
- Food Intake Per Animal Per Day ([2]; interval 2.0-2.5 weeks): 2.3 ± 0.3 g
- Food Intake Per Animal Per Day ([2]; interval 2.5-3.0 weeks): 2.5 ± 0.1 g
- Food Intake Per Animal Per Day ([2]; interval 3.0-3.5 weeks): 2.4 ± 0.3 g
- Food Intake Per Animal Per Day ([2]; interval 3.5-4.0 weeks): *2.0 ± 0.1 g
- Food Intake Per Animal Per Day ([2]; interval run-in): 2.5 ± 0.5 g
- food intake, in words ([2]; last time point): slight, but significant, decrease
- Plasma Leptin Levels ([3]; day 0, four hour fasting): ^#3.9 ± 1.5 ng/ml
- Plasma Leptin Levels ([3]; day 14, four hour fasting): ^#4.5 ± 2.1 ng/ml
- Plasma Leptin Levels ([3]; day 28, four hour fasting): ^#5.1 ± 2.3 ng/ml
- plasma leptin levels, in words ([3]; relative to the oral vehicle control group): significantly decreased
- IDL/LDL particle size, in words [4]: slight shift toward larger IDL/LDL particles
- VLDL fraction of plasma lipoprotein profile, in words [4]: increase
- Plasma Adiponectin Levels ([5]; day 0, four hour fasting): 10.4 ± 1.9 µg/mL
- Plasma Adiponectin Levels ([5]; day 14, four hour fasting): 10.2 ± 2.7 µg/mL
- Plasma Adiponectin Levels ([5]; day 28, four hour fasting): ^#11.9 ± 1.9^ mg/ml
- plasma adiponectin level, in words ([5]; day 28 as compared to day 0): significantly higher
- Plasma Alanine Amino Transferase Activity ([6]; day 28): *94.0 ± 22.1 U/L
- plasma ALAT levels, in words ([6]; day 28, compared to respective control group): significantly decreased
- liver triglycerides (TG), in words ([7]; compared to respective control group): significantly decreased
- liver cholesterol esters (CE), in words ([7]; compared to the oral vehicle group): significantly increased
- Lipid Content of Liver: Cholesterol Esters ([7]; end of four-week treatment): ^#59 ± 6
- Lipid Content of Liver: Free Cholesterol ([7]; end of four-week treatment): 22 ± 2
- Lipid Content of Liver: Triglycerides ([7]; end of four-week treatment): *64 ± 14
- Total Plasma Cholesterol ([8]; day 0): 14.3 ± 3.2 mM
- Total Plasma Cholesterol ([8]; day 14): ^#19.1 ± 4.9 mM
- Total Plasma Cholesterol ([8]; day 28): ^#19.5 ± 4.1 mM
- total plasma cholesterol levels, in words ([8]; days 14 and 28, relative to respective control group): slightly and significantly increased
- plasma HB levels, in words ([9]; at 28 days, compared to the oral vehicle control group): significantly lower
- Plasma Ketone Body (HB) levels ([9]; day 0, 4-hour fasting): 0.73 ± 0.24 mM
- Plasma Ketone Body (HB) levels ([9]; day 14, 4-hour fasting): 0.32 ± 0.11 mM
- Plasma Ketone Body (HB) levels ([9]; day 28, 4-hour fasting): ^#0.43 ± 0.11^ mM
- body weights, in words ([10]; last time point (4 weeks), within group): significantly reduced
- Body Weight ([10]; week 0): 21.8 ± 1.1 g
- Body Weight ([10]; week 0.5): 21.9 ± 1.0 g
- Body Weight ([10]; week 1): 21.9 ± 1.0 g
- Body Weight ([10]; week 1.5): *21.3 ± 0.9 g
- Body Weight ([10]; week 2): *21.4 ± 0.9 g
- Body Weight ([10]; week 2.5): *21.4 ± 0.9 g
- Body Weight ([10]; week 3): *21.3 ± 0.9 g
- Body Weight ([10]; week 3.5): 21.5 ± 0.9 g
- Body Weight ([10]; week 4): *21.5 ± 1.0 g
- Organ and Tissue Weights: Brain [11, 13]: ^#0.46 ± 0.02^ g
- Organ and Tissue Weights: Fat (gonadal fat) [11, 13]: *0.22 ± 0.04 g
- Organ and Tissue Weights: Heart [11, 13]: 0.14 ± 0.02 g
- Organ and Tissue Weights: Liver [11, 13]: 1.03 ± 0.14 g
- Organ and Tissue Weights: Lung [11, 13]: 0.18 ± 0.01 g
- brain weight, in words ([11]; end of treatment): slight, but significant increase
- heart, liver, or lung weights, in words ([11]; end of treatment): No significant changes
- gonadal fat weight, in words ([11]; relative to the oral vehicle group): significantly lower
- steatotic (Oil Red O) staining in liver, in words [12]: small, but not significant decrease
